Assay results as given in patent US20110184034A1, “Severe sepsis preventive therapeutic agent” (priority 2002, published 2011).

Tests used:
[1] = tested on: IL-6 production, mouse macrophage cell line RAW264.7; assay: IL-6 production by β-amyloid peptide (1-40) in RAW264.7; format: cell-based; conditions: β-amyloid peptide (1-40) 10 μM + interferon-γ 10 U/mL
Procedure: (§1) On the previous day of the experiment, the cells were suspended in RPMI-1640 medium supplemented with 10% inactivated fetal calf serum to 5×10^5 cells/mL and inoculated to a 96-well microplate at 0.2 mL/well. After incubation at 37° C. under 5% CO2/95% air overnight, the medium was changed to an RPMI-1640 medium supplemented with 1% inactivated fetal calf serum, a test substance and β-amyloid peptide (1-40) (final concentration 10 μM) and interferon-γ (final concentration 10 U/mL) were added. After further incubation overnight, the concentrations of tumor necrosis factor-α (TNF-α) and IL-6 in culture supernatants were measured using an enzyme immunoassay kit manufactured by Amersham. The test substance was dissolved at 10 mM in N,N-dimethylformamide and diluted with an RPMI-1640 medium supplemented with 1%, inactivated fetal calf serum to the concentration of 0.1 mM, then diluted with a medium to a 10-fold concentration of the final concentration and 1/10 was added.

[2] = tested on: TNF-α production, mouse macrophage cell line RAW264.7; assay: TNF-α production by β-amyloid peptide (1-40) in RAW264.7; format: cell-based; conditions: β-amyloid peptide (1-40) 10 μM + interferon-γ 10 U/mL
Procedure: as §1

[3] = tested on: LPS-inoculated female BALB/c mice; assay: Effect by administration after LPS inoculation in endotoxin shock model (1), survival; format: in vivo, mouse; conditions: LPS 10 mg/kg i.p.; test substance 30 mg/kg i.p. at 1 hr after LPS inoculation; observed one week
Procedure: To investigate the treatment effect during the process toward an advanced degree after the onset of sepsis, the effect of a test substance (Reference Example B1) by administration after LPS inoculation in an endotoxin shock model was investigated. […] The test substance was suspended in 0.5% aqueous methyl cellulose solution, and intraperitoneally inoculated (30 mg/kg) at 1 hr before, immediately after, 30 min after and 1 hr after LPS inoculation. The solvent was given to the control group at 1 hr before LPS inoculation.

[4] = tested on: female CBA/J mice, DSS induced colitis; assay: Dextran sulfate induced colitis model; format: in vivo, mouse; conditions: for BW (%) / Hb / Ht (%) / RBC / WBC: means ± SE of six mice; for GBS (%) (grossly bloody stool): six mice
Procedure: A 5% dextran sulfate (DSS) solution was placed in a water feeder to allow free drinking by female CBA/J mice (8 w) for 5 days, the solution was changed to 1% DSS solution on day 6 to allow free drinking for 7 days. The drug (Reference Example B3) (10-30 mg/kg) was suspended in 0.5% methyl cellulose (MC), and orally administered from day 6 under 1% DSS solution drinking once a day for 7 days. After 12 days of drinking DSS, the body weight was measured and stool was observed (grossly bloody stool: GBS). Blood was drawn and white blood count (WBC), red blood count (RBC), hemoglobin concentration (Hb) and hematocrit value (Ht) were measured by using an automatic cell counter (Sysmex).

[5] = tested on: male DBA/1 mice, type II collagen induced arthritis; assay: Collagen induced arthritis model; format: in vivo, mouse; conditions: for Arthritis incidence (%) / Arthritis index: 30 mg/kg orally once a day from collagen immunization
Procedure: Bovine-derived type II collagen was dissolved in 0.050 acetic acid solution, and an equivalent amount of Freund's complete adjuvant was mixed therewith to give an emulsion. The collagen emulsion was administered intracutaneously into the tail head of male DBA/1 mice (6W) (n=10-12) at 100 μg/0.1 mL to induce arthritis. The levels of flare and edema of four limbs were visually observed during the progress thereof. The drug (Reference Example B3) (30 mg/kg) was suspended in 0.5% MC, and orally administered once a day from collagen immunization for 8 weeks (except Sundays). The onset of arthritis was evaluated every week, and the rate of onset was expressed by (number of limbs having arthritis/number of limbs of mice in one group×100). As indices of arthritis, for each limb, no change was 0, swelling of one finger or plural fingers was 1, flare and swelling seen in the entirety was 2, strong swelling seen in the entirety was 3, crampus tonicus of joint was 4, and the total of four limbs was 16, and arthritis was expressed in (total of all scores of onset mice/number of limbs of mice in one group), wherein 4 was the highest value for one limb.

[6] = tested on: male Sprague-Dawley rats, balloon-injured carotid artery; assay: Rat balloon injury model, vascular thickening (DNA content of carotid artery); format: in vivo; conditions: 30 and 100 mg/kg/d i.p. once a day, 2 weeks
Procedure: Using male Sprague-Dawley rats, the neck was incised under sodium pentobarbital (45 mg/kg ip) anesthesia to expose left carotid artery. A Forgaty catheter (2F, manufactured by Baxtar) was inserted from the […] to a bifurcation area of internal and external carotid arteries of left carotid artery, a balloon was blown and abraded to the aortic arch bifurcation. This operation was repeated three times to injure the common carotid artery. After the injury, the catheter was extracted, the incision was sutured, and the rats were individually bred in ordinary breeding cages. After 2 weeks from the injury, the rats were exsanguinated under anesthesia, and the left (injured) side and the right (non-injured) side of carotid arteries were removed by 5 mm on the heart side, at 5 mm from the internal and external carotid artery bifurcation area, and the DNA content was measured. The drug (Reference Example B3) was suspended in 0.5% methyl cellulose, and intraperitoneally administered once a day from the day of balloon injury operation to carotid artery enucleation. When balloon injury operation was performed, the drug was administered 30 min before anesthesia and the balloon injury was produced.

[7] = tested on: E. coli O111 inoculated galactosamine-loaded female BALB/c mice; assay: Galactosamine loaded mouse Escherichia coli inoculated lethal model, survival; format: in vivo; conditions: E. coli O111 5.9×10^5 CFU i.p. with galactosamine 1 g/kg; test substance 30 mg/kg orally at 1 hr after bacterial inoculation; observed 6 days
Procedure: Since sepsis is a systemic inflammatory response caused by infection, the effect of a test substance (Reference Example B26) by administration after bacterial inoculation in infection model was studied. […] The test substance was suspended in 0.5% aqueous methyl cellulose solution, and orally administered (30 mg/kg) immediately, 30 min and 1, 2 and 4 hr after the bacterial inoculation. The solvent was orally administered to the control group immediately after the bacterial inoculation.
In other words, the test substance can be expected to show effect of improving the state of severe sepsis complicated with organ dysfunction.

[8] = tested on: TLR9 signal (CPG), mouse macrophage cell line RAW264.7; assay: NO production by TLR9 selective agonist CpG oligoDNA (CPG) in RAW264.7; format: cell-based; conditions: RAW264.7, CpG oligoDNA 75 nmol/L + interferon-γ 0.1 ng/mL, nitrite ion
Procedure: (§2) Using mouse macrophage cell line RAW264.7, the suppressive effect of the test substance on cytokine production by a TLR selective agonist was investigated. On the previous day of the experiment, the cells were suspended in RPMI-1640 medium supplemented with 10% inactivated fetal calf serum to 5×10^5 cells/mL and inoculated to a 96-well microplate at 0.2 mL/well. After incubation at 37° C. under an atmosphere of 5% CO2/95% air overnight, the medium was changed to an RPMI-1640 medium supplemented with 1% inactivated fetal calf serum, and a test substance, various TLR agonists and interferon-γ (final concentration 0.1 ng/mL) were added. After further incubation overnight, the concentration of nitrite ion (stable metabolite of NO) in the culture supernatant was quantified by fluorescence method using 2,3-dimaminonaphthalene. As the TLR4 selective agonist, LPS was added, as the TLR2 selective agonist, peptide glycan (PGN) was added, and as the TLR9 selective agonist, CpG oligoDNA (CPG) was added, to the final concentrations of 5 ng/mL, 1 μg/mL and 75 nmol/L, respectively. In addition, the test substance was dissolved at 10 mM in N,N-dimethylformamide, diluted with an RPMI-1640 medium supplemented with 1% inactivated fetal calf serum to the concentration of 0.1 mM, then diluted with a medium to a 10-fold concentration of the final concentration and 1/10 was added.

[9] = tested on: LPS-inoculated female BALB/c mice; assay: Effect by administration after LPS inoculation in endotoxin shock model (2), survival; format: in vivo, mouse; conditions: LPS 4 mg/kg i.p.; test substance 10 mg/kg i.v. (soybean oil emulsion) at 4 hr after LPS inoculation; observed 5 days
Procedure: To investigate the treatment effect during the process toward an advanced degree after the onset of sepsis, the effect of a test substance (Reference Example B66) by administration after LPS inoculation in an endotoxin shock model was investigated. […] The test substance was prepared into an emulsified liquid of a soybean oil, and intravenously administered (10 mg/kg) immediately after, 1, 2, 4 and 6 hr after LPS inoculation. An emulsified liquid without a drug was intravenously administered to the control group immediately after LPS inoculation.

[10] = tested on: TLR4 signal (LPS), mouse macrophage cell line RAW264.7; assay: NO production by TLR4 selective agonist LPS in RAW264.7; format: cell-based; conditions: RAW264.7, LPS 5 ng/mL + interferon-γ 0.1 ng/mL, nitrite ion
Procedure: as §2

[11] = tested on: TLR2 signal (PGN), mouse macrophage cell line RAW264.7; assay: NO production by TLR2 selective agonist peptide glycan (PGN) in RAW264.7; format: cell-based; conditions: RAW264.7, PGN 1 μg/mL + interferon-γ 0.1 ng/mL, nitrite ion
Procedure: as §2

[12] = 10 mg/kg orally once a day for 7 days
[13] = 30 mg/kg orally once a day for 7 days

CCOC(=O)C1=CCCCC1S(=O)(=O)Nc1ccc(Cl)cc1F (stereo not drawn) [Reference Example B1, ethyl 6-[N-(4-chloro-2-fluorophenyl)-sulfamoyl]-1-cyclohexene-1-carboxylate]
Suppressive rate (%) IL-6 ([1]; 1 μM): 80% | Suppressive rate (%) IL-6 ([1]; 10 μM): 100% | Suppressive rate (%) TNF-α ([2]; 1 μM): 77% | Suppressive rate (%) TNF-α ([2]; 10 μM): 99% | life-saving effect (survival) [3]: clear life-saving effect

CCOC(=O)C1=CCCCC1S(=O)(=O)Nc1ccc(F)cc1F (stereo not drawn) [Reference Example B3, ethyl 6-[N-(2,4-difluorophenyl)sulfamoyl]-1-cyclohexene-1-carboxylate]
Suppressive rate (%) IL-6 ([1]; 1 μM): 100% | Suppressive rate (%) IL-6 ([1]; 10 μM): 100% | BW (%) [4, 12]: 102.0 ± 7.1% | Hb [4, 12]: 13.2 ± 0.8 g/dL | Ht (%) [4, 12]: 35.4 ± 2.7% | RBC [4, 12]: 607.5 ± 45.3 ×10^4/μL | WBC [4, 12]: 41.0 ± 4.1^+ ×10^2/μL | GBS (%) (grossly bloody stool) [4, 12]: 83% | BW (%) [4, 13]: 102.8 ± 7.9% | Hb [4, 13]: 12.9 ± 0.5 g/dL | Ht (%) [4, 13]: 35.1 ± 2.7% | RBC [4, 13]: 616.7 ± 51.1 ×10^4/μL | WBC [4, 13]: 53.5 ± 7.8^+ ×10^2/μL | GBS (%) (grossly bloody stool) [4, 13]: 67% | changes in WBC, RBC, Hb and Ht induced by DSS ([4]; 10-30 mg/kg orally): remarkably suppressed changes in WBC, RBC, Hb and Ht induced by DSS | Suppressive rate (%) TNF-α ([2]; 1 μM): 87% | Suppressive rate (%) TNF-α ([2]; 10 μM): 97% | incidence and index of arthritis ([5]; 30 mg/kg orally): decreased the incidence and index of arthritis | Arthritis incidence (%) ([5]; 6W): 37.5% | Arthritis index ([5]; 6W): 0.65 | Arthritis incidence (%) ([5]; 7W): 40.0% | Arthritis index ([5]; 7W): 0.80 | Arthritis incidence (%) ([5]; 8W): 60.0% | Arthritis index ([5]; 8W): 1.15 | vascular thickening due to balloon injury (DNA content) [6]: suppressed vascular thickening due to balloon injury in a dose-dependent manner

CCOC(=O)C1=CCCCC1S(=O)(=O)Nc1ccc(F)cc1Cl (stereo not drawn) [Reference Example B26, ethyl 6-[N-(2-chloro-4-fluorophenyl)-sulfamoyl]-1-cyclohexene-1-carboxylate]
Suppressive rate (%) IL-6 ([1]; 1 μM): 93% | Suppressive rate (%) IL-6 ([1]; 10 μM): 96% | Suppressive rate (%) TNF-α ([2]; 1 μM): 88% | Suppressive rate (%) TNF-α ([2]; 10 μM): 100% | life-saving effect (survival) [7]: clear life-saving effect

CCOC(=O)C1=CCCC[C@H]1S(=O)(=O)Nc1ccc(F)cc1Cl [Reference Example B66, ethyl (6R)-6-[(2-chloro-4-fluoroanilino)sulfonyl]-1-cyclohexene-1-carboxylate]
IC50 [8]: > 1 µM | life-saving effect (survival) [9]: clear life-saving effect | IC50 [10]: 0.01 µM | IC50 [11]: > 1 µM

CCOC(=O)C1=CCCCC1S(=O)(=O)Cc1ccc(F)cc1Cl (stereo not drawn) [Reference Example D4, ethyl 6-[(2-chloro-4-fluorobenzyl)sulfonyl]-1-cyclohexene-1-carboxylate]
IC50 [8]: > 1 µM | IC50 [10]: 0.011 µM | IC50 [11]: > 1 µM

CCOC(=O)C1=CCOCC1S(=O)(=O)Nc1ccc(F)cc1Cl (stereo not drawn) [Reference Example D7, ethyl 3-[(2-chloro-4-fluorophenyl)sulfamoyl]-3,6-dihydro-2H-pyran-4-carboxylate]
IC50 [8]: > 1 µM | IC50 [10]: 0.018 µM | IC50 [11]: 0.53 µM
